In US20020143059A1, “Skin care product containing retinoids, retinoid booster and phytoestrogens in a dual compartment package” (priority 2000, published 2002):

Key:
[1] = molecular target: T1, LRAT (Bos taurus, UniProt Q9BGL2); experiment: Assay for LRAT activity, RPE microsomes; format: biochemical, bovine; conditions: for % Inhibition LRAT (100 μm): 100 μm compound; for % Inhibition LRAT (10 μm): 10 μm compound
T1 construct: followed by approximately 15 μg of RPE microsomal protein; tissue W. L. Lawson Co., Lincoln, Nebr; host or cells: bovine retinal pigment epithelium microsomes
T1 sequence (Q9BGL2 1-230): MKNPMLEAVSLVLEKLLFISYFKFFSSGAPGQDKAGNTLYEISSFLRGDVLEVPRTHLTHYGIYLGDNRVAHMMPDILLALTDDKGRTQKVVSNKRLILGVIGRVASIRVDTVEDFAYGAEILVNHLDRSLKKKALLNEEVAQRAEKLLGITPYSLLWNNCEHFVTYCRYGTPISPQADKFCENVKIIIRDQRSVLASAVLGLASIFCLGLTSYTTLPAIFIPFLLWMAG

[2] = tested on: ARAT; experiment: Assay for ARAT activity, RPE microsomes; format: biochemical, bovine; conditions: for % Inhibition ARAT (100 μm): 100 μm compound; for % Inhibition ARAT (10 μm): 10 μm compound
[3] = molecular target: TGase I; experiment: Transglutaminase (TGase I ELISA) assay in cultured keratinocytes; format: cell-based; conditions: booster in combination with a constant retinol concentration of 10^−7M; read-out: Overall TG (IC 50)
[4] = tested on: retinoic acid oxidation (cytochrome P450 systems); experiment: Assay for NADPH Dependent Retinoic Acid Oxidation, liver microsomes; format: biochemical, rat; conditions: for % Inhibition Retinoic Acid (10 μM): 10 μM compound; for % Inhibition Retinoic Acid (100 μM): 100 μM compound
[5] = tested on: CRABP-II; experiment: CRABP-II expression in adult fibroblasts (dot blot); format: cell-based, human; conditions: for CRABP-II production: 48 hours; for % as Control: control as 100%

Compound	% Inhibition LRAT (100 μm) [1]	% Inhibition ARAT (100 μm) [2]	also measured
CCCC(O)CCC1C(C)CCCC1(C)C (stereo not drawn) [Timberol]	33%	–	–
Cocoyl Monoethanolamide	34%	13%	–
CC(=O)CCC1C(C)=CCCC1(C)C (stereo not drawn) [Dihydro Alpha-Ionone]	18%	13%	–
Isobutyl Ionone	45%	8%	–
CC=CC(=O)C1CCC(C)(C)C=C1C (stereo not drawn) [Isodamascone]	92%	80%	–
CC(=O)/C=C/C=C(\C)CCC=C(C)C [Pseudoionone]	37%	–	–
Coco Trimethylammonium Cl-	–	27%	–
CC(=O)C1(C)C2CC3C(C2)C31C (stereo not drawn) [Santalone]	12%	23%	–
CCCCCCCC/C=C\CCCCCCCC[N+](C)(C)CC(=O)[O-] [Oleyl Betaine]	–	47%	IC50 [3]: 28 µM
CCCCC/C=C/C/C=C/CCCCCCCC(=O)NC(C)c1ccccc1 (stereo not drawn) [Melinamide, reference compound]	–	64% +/− 15	–
CC(C)=CCCC(C)=CCCC(C)=CCO [Farnesol]	–	53% +/− 18	% Inhibition ARAT (10 μm) [2]: 23% +/− 18
CCCCCCCCCCCC1=NCCN1CCO [Lauryl Hydroxyethylimidazoline]	–	–	IC50 [3]: 0.467 µM
CC(C)(O)CCCC1=CCC(C=O)CC1 (stereo not drawn) [Lyral]	–	76%	–
Clc1ccc(COC(Cn2ccnc2)c2ccc(Cl)cc2Cl)c(Cl)c1 (stereo not drawn) [Miconazole]	–	–	% Inhibition Retinoic Acid (10 μM) [4]: 74%; % Inhibition Retinoic Acid (100 μM) [4]: 86%
CCCCC/C=C\C/C=C\CCCCCCCC(=O)OC/C=C(C)/C=C/C=C(C)/C=C/C1=C(C)CCCC1(C)C [Retinyl Linoleate]	–	–	CRABP-II production ([5]; 100 nM retinoid alone): 0.52+/−0.3; % as Control ([5]; 100 nM retinoid alone): 181+/−110%
CC(=O)OC/C=C(C)/C=C/C=C(C)/C=C/C1=C(C)CCCC1(C)C [Retinyl Acetate]	–	–	CRABP-II production ([5]; 100 nM retinoid alone): 0.60+/−0.32; % as Control ([5]; 100 nM retinoid alone): 209+/−118%
CCCCCCCCCCCCCCCC(=O)OC/C=C(C)/C=C/C=C(C)/C=C/C1=C(C)CCCC1(C)C [Retinyl Palmitate]	–	–	CRABP-II production ([5]; 100 nM retinoid alone): 1.26+/−0.51; % as Control ([5]; 100 nM retinoid alone): 434+/−177%
CC12CCC(C1)C(C)(C)C2O (stereo not drawn) [Fenchyl Alcohol]	–	12%	–
Castor Oil MEA	–	–	IC50 [3]: 32.5 µM

Compound	% Inhibition LRAT (100 μm) [1]	% Inhibition ARAT (100 μm) [2]	also measured
CC(=O)c1cc2c(cc1C)C(C)(C)[C@H](C)[C@H]2C(C)C [Traseolide]	–	41%	–
CCN(CC)CC(=O)Nc1c(C)cccc1C [Lidocaine, reference compound]	–	12%	–
CCCCCC(N)=O [Hexanoamide]	–	20%	–
CC1=C(/C=C/C(C)=C/C=C/C(C)=C/C(=O)O)C(C)(C)CCC1 [Retinoic acid, reference compound]	–	–	CRABP-II production ([5]; 1 nM retinoid alone): 0.97+/−0.47; % as Control ([5]; 1 nM retinoid alone): 335+/−162%; CRABP-II production ([5]; 10 nM retinoid alone): 1.24+/−0.29; % as Control ([5]; 10 nM retinoid alone): 428+/−101%
CCCCC/C=C\C/C=C\CCCCCCCC(=O)NCCO [Linoleoyl Monoethanolamide]	–	–	IC50 [3]: 16.1 µM
CCOC(=O)C1=C(C)C=CCC1(C)C [Ethyl Saffranate]	49%	–	–
CC(=O)N1CCN(c2ccc(OCC3COC(Cn4ccnc4)(c4ccc(Cl)cc4Cl)O3)cc2)CC1 (stereo not drawn) [Ketoconazole]	–	–	% Inhibition Retinoic Acid (10 μM) [4]: 84%; % Inhibition Retinoic Acid (100 μM) [4]: 84%
Clc1ccc(COC(Cn2ccnc2)c2ccc(Cl)cc2Cl)cc1 (stereo not drawn) [Econazole]	–	–	% Inhibition Retinoic Acid (10 μM) [4]: 88%; % Inhibition Retinoic Acid (100 μM) [4]: 100%
Glycerol-PCA-Oleate	58% +/− 2	41% +/− 6	–
Hydroxyquinoline (Carbostyril)	–	–	IC50 [3]: 364 µM
CC1=CC(C)C(CO)C(C)C1 (stereo not drawn) [Isocyclogeraniol]	16%	18%	–
C/C=C\C(=O)C1C(C)=CCCC1(C)C (stereo not drawn) [Alpha-Damascone]	98% +/− 1	–	IC50 [3]: 335 µM; % Inhibition LRAT (10 μm) [1]: 87% +/− 6
Santanol	43%	15%	–
C/C=C/C(=O)C1=C(C)CCCC1(C)C [Beta-Damascone]	92%	–	% Inhibition LRAT (10 μm) [1]: 52%
CCCCCCCC(=O)OC[C@H](COP(=O)(O)OCCN)OC(=O)CCCCCCC [Dioctylphosphatidyl Ethanolamine]	17% +/− 17	–	% Inhibition ARAT (10 μm) [2]: 23%; % Inhibition LRAT (10 μm) [1]: 0%
CCCCC/C=C\C/C=C\CCCCCCCC(=O)NCCCN(C)C [Linoleamidopropyl Dimethylamine]	–	69% +/− 18	–
C/C=C/C(=O)C1=C(C)C=CCC1(C)C [Damascenone]	79%	–	% Inhibition LRAT (10 μm) [1]: 29%
O=c1c(O)c(-c2ccc(O)c(O)c2)oc2cc(O)cc(O)c12 [Quercetin]	–	–	% Inhibition Retinoic Acid (10 μM) [4]: 40%; % Inhibition Retinoic Acid (100 μM) [4]: 74%
CC(=O)/C(C)=C/C1C(C)=CCCC1(C)C (stereo not drawn) [Gamma-Methyl Ionone]	38%	–	–

Compound	% Inhibition LRAT (100 μm) [1]	% Inhibition ARAT (100 μm) [2]	also measured
CC(C)(C(=O)c1cccnc1)c1cccnc1 [2-Methyl-1,2-di-3-Pyridyl-1-Propane]	–	–	% Inhibition Retinoic Acid (100 μM) [4]: 47%
CCCCCCCCCCCCC/C=C/[C@@H](O)[C@H](CO)NC(=O)CCCCC [Hexanoyl Sphingosine]	37% +/− 9	–	IC50 [3]: 99.9 µM
O=c1c2cccc3cccc(c32)c2nc3ccccc3n12 [(7H-Benzimidazo[2,1-a]Benz[de]-Isoquinolin-7-one]	–	–	IC50 [3]: 0.859 µM
CC(=O)c1cc2c(cc1C)C(C)(C)C(C)CC2(C)C (stereo not drawn) [Tonalid]	–	50%	–
c1ccc(-c2ccc(C(c3ccccc3)n3ccnc3)cc2)cc1 (stereo not drawn) [Bifonazole]	–	–	% Inhibition Retinoic Acid (10 μM) [4]: 89%; % Inhibition Retinoic Acid (100 μM) [4]: 100%
CCCCCCCCCCCCC/C=C/[C@@H](O)[C@H](CO)NC(C)=O [Acetyl Sphingosine]	50% +/− 18	62% +/− 11	IC50 [3]: 6.78 µM; % Inhibition ARAT (10 μm) [2]: 19% +/− 12; % Inhibition LRAT (10 μm) [1]: 10% +/− 10
CCC(=O)/C=C/C1C(C)=CCCC1(C)C (stereo not drawn) [Alpha-Methyl Ionone]	77%	67%	–
CCCCCCCC/C=C\CCCCCCCC1=NCCN1CCO [Oleyl Hydroxyethylimidazoline]	–	–	IC50 [3]: 30.2 µM
CC(C)=CCC/C(C)=C/CC/C(C)=C/CC/C(C)=C/CO [Geranyl Geraniol]	–	81% +/− 6	% Inhibition ARAT (10 μm) [2]: 38% +/− 12
CCCCCCCCCCC(O)C(=O)NCCO (stereo not drawn) [Hydroxyethyl-2-Hydroxy-C12 Amide]	35%	–	IC50 [3]: 32.9 µM
C/C=C/C(=O)C1C(C)C=CCC1(C)C (stereo not drawn) [Delta-Damascone]	95%	–	% Inhibition LRAT (10 μm) [1]: 64%
Clc1ccccc1C(c1ccccc1)(c1ccccc1)n1ccnc1 [Clotrimazole]	–	–	% Inhibition Retinoic Acid (10 μM) [4]: 76%
CC1=CCC(CCC(C)CO)C1(C)C (stereo not drawn) [Brahmanol]	75%	70%	–
O=C1C[C@@H](c2ccc(O)cc2)Oc2cc(O)cc(O)c21 [Naringenin]	–	33%	–
CC(C)=CCCC(C)CCO (stereo not drawn) [Citronellol]	–	30%	–
CC(C)(C)C(=O)C(Oc1ccc(Cl)cc1)n1ccnc1 (stereo not drawn) [Climbazole]	–	–	% Inhibition Retinoic Acid (10 μM) [4]: 80%; % Inhibition Retinoic Acid (100 μM) [4]: 92%
CCCCCCCCCCCCCC(=O)N(C)CC(=O)O [Myristoyl Sarcosine]	–	41% +/− 14	–
CC(/C=C/C=C(\C)C(=O)O)=C\C=C\C=C(C)\C=C\C=C(/C)C(=O)O [Crocetin]	–	34%	% Inhibition ARAT (10 μm) [2]: 15%
Coco Hydroxyethylimidazoline	68%	–	–
